In US20250249000A1, “SIK3 INHIBITORS FOR TREATING DISEASES RESISTANT TO DEATH RECEPTOR SIGNALLING” (IOMX THERAPEUTICS AG, priority 2022, published 2025):
“Also recorded” adds a separate entry of the source.

Experiments:
Type in all cases: cell-based
[1] = test system: human melanoma tumor cell line A375; assay: Complexed TRAIL induced apoptosis in A375 cells in combination with SIK3 inhibitor; conditions: 10 ng/ml complexed TRAIL plus E9 vs DMSO control, caspase 3/7 at 8 hours, annexin V and cytotox red at 24 hours, FIG. 5
Procedure: (§1) The experiments were done briefly as follows: murine colorectal carcinoma cell line MC38, murine triple negative breast cancer cell line EMT6 and human melanoma tumor cell line A375 were treated with 1 ng/ml TNF, 0.8 ng/ml murine death receptor 5 targeting antibody (clone MD5-1) and 10 ng/ml complexed TRAIL, respectively, or with the appropriate negative controls, in combination with the SIK3 inhibitor E9 and an associated DMSO control. The onset of tumor cell death was monitored 8 hours after treatment initiation by analyzing cleavage of effector caspases 3/7 using Caspase-Glo® assay from Promega according to manufacturer's protocol. In addition, 24 hours after treatment initiation, the increase in extracellular phosphatidylserine expression was measured by annexin V expression level and cell membrane disruption by cytotox red staining, both according to manufacturer's protocol.

[2] = test system: murine triple negative breast cancer cell line EMT6; assay: Death receptor 5 antibody (MD5-1) induced apoptosis in EMT6 cells in combination with SIK3 inhibitor; conditions: 0.8 ng/ml murine death receptor 5 targeting antibody (clone MD5-1) plus E9 vs DMSO control, caspase 3/7 at 8 hours, annexin V and cytotox red at 24 hours, FIG. 4
Procedure: as §1

[3] = test system: murine colorectal carcinoma cell line MC38; assay: TNF induced apoptosis in MC38 cells in combination with SIK3 inhibitor; conditions: 1 ng/ml TNF plus E9 vs DMSO control, caspase 3/7 at 8 hours, annexin V and cytotox red at 24 hours, FIG. 3
Procedure: as §1

Compound: Cc1nc(Nc2ncc(C(=O)Nc3c(CF)csc3Cl)s2)cc(N2CCN(C)CC2)n1 [Compound E9, N-(2-chloro-4-(fluoromethyl)thiophen-3-yl)-2-((2-methyl-6-(4-methylpiperazin-1-yl)pyrimidin-4-yl)amino)thiazole-5-carboxamide]
- enhancement of death receptor induced apoptosis (caspase-3/7 cleavage, annexin V, cytotox red) [1]: enhanced death receptor mediated apoptosis; also recorded: potent enhancement of death receptor induced apoptosis
- enhancement of death receptor induced apoptosis (caspase-3/7 cleavage, annexin V, cytotox red) [2]: potent enhancement of death receptor induced apoptosis; also recorded: enhanced death receptor mediated apoptosis
- enhancement of death receptor induced apoptosis (caspase-3/7 cleavage, annexin V, cytotox red) [3]: potent enhancement of death receptor induced apoptosis; also recorded: enhanced death receptor mediated apoptosis
